Assay results: patent US6274715A, “Tricyclic erythromycin derivatives” (priority 1997, dated 2001)
≈ marks a conversion by molar mass, not a printed value.

How the values were obtained:
Type in all cases: cell-based
ESCHERICHIA COLI SS = experiment: In vitro antibacterial activity, MIC, BHI agar dilution; conditions: E. coli SS
[1] = test system: STAPHYLOCOCCUS AUREUS CMX 642A; experiment: as above; conditions: S. aureus CMX 642A, unit assumed
ESCHERICHIA COLI JUHL = conditions: E. coli JUHL; BHI agar; unit assumed
[2] = test system: STREPTOCOCCUS PYOGENES EES61; experiment: In vitro antibacterial activity, MIC, BHI agar dilution
[3] = test system: STAPHYLOCOCCUS EPIDERMIDIS 3519; conditions: S. epidermidis 3519; BHI agar; unit assumed
PSEUDOMONAS CEPACIA 296I = experiment: In vitro antibacterial activity, MIC, BHI agar dilution; conditions: P. cepacia 296I, unit assumed
[4] = test system: PSEUDOMONAS AERUGINOSA BMH10; experiment: as above; conditions: P. aeruginosa BMH10, unit assumed
[5] = test system: KLEBSIELLA PNEUMONIAE ATCC 8045; experiment: as above; conditions: K. pneumoniae ATCC 8045, unit assumed
[6] = test system: PSEUDOMONAS AERUGINOSA DPHD-2862; experiment: as above; conditions: P. aeruginosa DPHD-2862, unit assumed
[7] = test system: STAPHYLOCOCCUS AUREUS CMX 553; experiment: as above; conditions: S. aureus CMX 553, unit assumed
[8] = test system: STAPHYLOCOCCUS AUREUS A-5278; experiment: as above; conditions: S. aureus A-5278, unit assumed
[9] = test system: STREPTOCOCCUS BOVIS A-5169; experiment: as above; conditions: S. bovis A-5169, unit assumed
[10] = test system: PSEUDOMONAS AERUGINOSA DPHD-5263; experiment: as above; conditions: P. aeruginosa DPHD-5263, unit assumed
[11] = test system: PSEUDOMONAS AERUGINOSA 5007; experiment: as above; conditions: P. aeruginosa 5007, unit assumed
M[…] ATCC 4698 = experiment: as above; conditions: M. luteus ATCC 4698, unit assumed
Procedure: (§1) Representative compounds of the present invention were assayed in vitro for antibacterial activity as follows: Twelve petri dishes containing successive aqueous dilutions of the test compound mixed with 10 mL of sterilized Brain Heart Infusion (BHI) agar (Difco 0418-01-5) were prepared. Each plate was inoculated with 1:100 (or 1:10 for slow-growing strains, such as Micrococcus and Streptococcus) dilutions of up to 32 different microorganisms, using a Steers replicator block. The inoculated plates were incubated at 35-37° C. for 20 to 24 hours. In addition, a control plate, using BHI agar containing no test compound, was prepared and incubated at the beginning and end of each test.
(§2) An additional plate containing a compound having known susceptibility patterns for the organisms being tested and belonging to the same antibiotic class as the test compound was also prepared and incubated as a further control, as well as to provide test-to-test comparability. Erythromycin A was used for this purpose.
(§3) After incubation, each plate was visually inspected. The minimum inhibitory concentration (MIC) was defmed as the lowest concentration of drug yielding no growth, a slight haze, or sparsely isolated colonies on the inoculum spot as compared to the growth control.

STR[…] 508 = experiment: as above
Procedure: as §1, §2, §3

M[…] ATCC 9341 = experiment: as above; conditions: M. luteus ATCC 9341, unit assumed
Procedure: as §1, §2, §3

EN[…] ATCC 8043 = experiment: as above; conditions: E. faecium ATCC 8043, unit assumed
Procedure: as §1, §2, §3

[12] = test system: STAPHYLOCOCCUS AUREUS 1775; experiment: as above; conditions: S. aureus 1775, unit assumed
ESCHERICHIA COLI KNK 437 = conditions: E. coli KNK 437; BHI agar; unit assumed
ESCHERICHIA COLI H560 = experiment: In vitro antibacterial activity, MIC, BHI agar dilution; conditions: E. coli H560, unit assumed
[13] = test system: MYCOBACTERIUM SMEGMATIS ATCC 114; experiment: as above; conditions: M. smegmatis ATCC 114, unit assumed
CANDIDA ALBICANS CCH 442 = experiment: as above
[14] = test system: PROVIDENCIA STUARTII CMX 640; conditions: P. stuartii CMX 640; BHI agar; unit assumed
[15] = test system: PSEUDOMONAS AERUGINOSA K799/WT; experiment: In vitro antibacterial activity, MIC, BHI agar dilution; conditions: P. aeruginosa K799/WT, unit assumed
[16] = test system: STREPTOCOCCUS PYOGENES 930; experiment: as above
[17] = test system: STREPTOCOCCUS PYOGENES PIU 2548; experiment: as above; conditions: S. pyogenes PIU 2548, unit assumed
[18] = test system: ENTEROBACTER AEROGENES ATCC 13048; experiment: as above; conditions: E. aerogenes ATCC 13048, unit assumed
ESCHERICHIA COLI DC-2 = experiment: as above; conditions: E. coli DC-2, unit assumed
[19] = test system: PSEUDOMONAS AERUGINOSA K799/61; experiment: as above
[20] = test system: STAPHYLOCOCCUS AUREUS NCTC10649M; experiment: as above; conditions: S. aureus NCTC10649M, unit assumed
[21] = test system: STAPHYLOCOCCUS AUREUS ATCC 6538P; experiment: as above; conditions: S. aureus ATCC 6538P, 35-37° C., 20 to 24 hours, unit assumed
[22] = S. pyogenes EES61, unit assumed
[23] = S. agalactiae CMX 508, unit assumed
[24] = C. albicans CCH 442, unit assumed

SMILES	MIC (ESCHERICHIA COLI SS; unit assumed) [µg/mL]	MIC [1] [µg/mL]	MIC (ESCHERICHIA COLI JUHL) [µg/mL]	MIC [2, 22] [µg/mL]	MIC [3] [µg/mL]	MIC (PSEUDOMONAS CEPACIA 296I) [µg/mL]	MIC [4] [µg/mL]	MIC [5] [µg/mL]	MIC [6] [µg/mL]	MIC [7] [µg/mL]	MIC [8] [µg/mL]	MIC [9] [µg/mL]	MIC [10] [µg/mL]	MIC [11] [µg/mL]	MIC (M[…] ATCC 4698) [µg/mL]	MIC (STR[…] 508; [23]) [µg/mL]	MIC (M[…] ATCC 9341) [µg/mL]	MIC (EN[…] ATCC 8043) [µg/mL]	MIC [12] [µg/mL]	MIC [17] [µg/mL]	also measured
CCC1OC(=O)C(C)C(=O)C(C)C(OC2OC(C)CC(N(C)C)C2O)C(C)(OC)CC(C)C2=NCC(C)(CN(C)C)N3C(=O)OC1(C)C3C2C (stereo not drawn) [Example 136]	0.78 (≈ 1.1 µM)	1.56 (≈ 2.2 µM)	100 (≈ 141 µM)	0.1 (≈ 0.141 µM)	1.56 (≈ 2.2 µM)	> 100	> 100	> 100	> 100	1.56 (≈ 2.2 µM)	> 100	0.02 (≈ 0.0282 µM)	> 100	> 100	0.78 (≈ 1.1 µM)	0.1 (≈ 0.141 µM)	0.1 (≈ 0.141 µM)	0.2 (≈ 0.282 µM)	> 100	1.56 (≈ 2.2 µM)	MIC (ESCHERICHIA COLI KNK 437): > 100 µg/mL; MIC (ESCHERICHIA COLI H560): 100 µg/mL (≈ 141 µM); MIC [13]: 6.2 µg/mL (≈ 8.75 µM); MIC (CANDIDA ALBICANS CCH 442; [24]): > 100 µg/mL; MIC [14]: > 100 µg/mL; MIC [15]: > 100 µg/mL; MIC ([16]; S. pyogenes 930, unit assumed): > 100 µg/mL; MIC [18]: > 100 µg/mL; MIC (ESCHERICHIA COLI DC-2): > 100 µg/mL
CC[C@H]1OC(=O)[C@H](C)C(=O)[C@H](C)[C@@H](O[C@@H]2O[C@H](C)C[C@H](N(C)C)[C@H]2O)[C@](C)(OC)C[C@@H](C)C2=NC(COCc3ccccc3)C(COCc3ccccc3)N3C(=O)O[C@@]1(C)[C@H]3[C@H]2C (stereo partly drawn) [Example 146]	0.78 (≈ 0.888 µM)	0.39 (≈ 0.444 µM)	50 (≈ 56.9 µM)	0.05 (≈ 0.0569 µM)	0.39 (≈ 0.444 µM)	25 (≈ 28.5 µM)	100 (≈ 114 µM)	100 (≈ 114 µM)	100 (≈ 114 µM)	0.39 (≈ 0.444 µM)	50 (≈ 56.9 µM)	0.05 (≈ 0.0569 µM)	100 (≈ 114 µM)	100 (≈ 114 µM)	0.2 (≈ 0.228 µM)	0.05 (≈ 0.0569 µM)	0.05 (≈ 0.0569 µM)	0.05 (≈ 0.0569 µM)	50 (≈ 56.9 µM)	0.78 (≈ 0.888 µM)	MIC ([19]; P. aeruginosa K799/61, unit assumed): 0.78 µg/mL (≈ 0.888 µM); MIC [20]: 0.39 µg/mL (≈ 0.444 µM); MIC [21]: 0.39 µg/mL (≈ 0.444 µM); MIC (ESCHERICHIA COLI KNK 437): 25 µg/mL (≈ 28.5 µM); MIC (ESCHERICHIA COLI H560): 25 µg/mL (≈ 28.5 µM); MIC [13]: 0.39 µg/mL (≈ 0.444 µM); MIC (CANDIDA ALBICANS CCH 442; [24]): 50 µg/mL (≈ 56.9 µM); MIC [14]: 100 µg/mL (≈ 114 µM); MIC [15]: 100 µg/mL (≈ 114 µM); MIC ([16]; S. pyogenes 930, unit assumed): 12.5 µg/mL (≈ 14.2 µM); MIC [18]: > 100 µg/mL; MIC (ESCHERICHIA COLI DC-2): 100 µg/mL (≈ 114 µM)
CC[C@H]1OC(=O)[C@H](C)C(=O)[C@H](C)[C@@H](O[C@@H]2O[C@H](C)C[C@H](N(C)C)[C@H]2O)[C@](C)(OC)C[C@@H](C)C2=NC(COCc3ccc(Cl)cc3)C(COCc3ccc(Cl)cc3)N3C(=O)O[C@@]1(C)[C@H]3[C@H]2C (stereo partly drawn) [Example 148]	–	–	–	–	–	–	–	–	–	–	12.5 (≈ 13.2 µM)	0.2 (≈ 0.211 µM)	–	–	1.56 (≈ 1.65 µM)	–	–	0.78 (≈ 0.824 µM)	–	3.1 (≈ 3.27 µM)	MIC (ESCHERICHIA COLI SS; listed as Ex 148, unit assumed): 25 µg/mL (≈ 26.4 µM); MIC ([19]; P. aeruginosa K799/61, listed as Ex 148, unit assumed): 25 µg/mL (≈ 26.4 µM); MIC ([2]; S. pyogenes EES61, listed as Ex 148, unit assumed): 0.2 µg/mL (≈ 0.211 µM); MIC (STR[…] 508; S. agalactiae CMX 508, listed as Ex 148, unit assumed): 0.39 µg/mL (≈ 0.412 µM); MIC (CANDIDA ALBICANS CCH 442; C. albicans CCH 442, listed as Ex 148, unit assumed): > 100 µg/mL; MIC ([16]; S. pyogenes 930, listed as Ex 148, unit assumed): 6.2 µg/mL (≈ 6.55 µM)
